In assay [1] the test system is HCT116-WT cells. In words: Inhibitory activity against cell proliferation (CellTiter Glo, 6 days), HCT116-WT. The format is cell-based. The following applies: 144 h, HCT116-WT cells, 6 days, CellTiter Glo; read-out: HCT116-WT IC50. The method, boiled down: (§1)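 Viability IC50s come from CellTiter Glo luminescence after 6 days' exposure to compound (8 concentrations, 4-fold steps, top 10000 nM), relative to DMSO wells. Cells were MTAP-KO or WT HCT116, seeded at 250 per well in McCoy's 5A with 10% FBS and incubated overnight before dosing.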

The target in assay [2] is PRMT5-MTA (Homo sapiens, UniProt O14744). As to the kind of experiment: Enzymatic inhibitory activity against PRMT5-MTA (AlphaScreen). The format is biochemical. The following applies: read-out: IC50. An outline of the steps: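 PRMT5/[…] (1 nM) was preincubated for 30 min at room temperature with 1 µM […] and 2.5 µM SAM, then exposed to compound (10-point, 3-fold from 1000 nM) for 15 min at 23 °C. Histone H4 substrate (5 nM) was added and reacted for 45 min at 23 °C. Symmetric dimethyl-R3 H4 was detected by AlphaScreen and IC50 calculated.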
Chain of PRMT5-MTA (O14744 whole entry): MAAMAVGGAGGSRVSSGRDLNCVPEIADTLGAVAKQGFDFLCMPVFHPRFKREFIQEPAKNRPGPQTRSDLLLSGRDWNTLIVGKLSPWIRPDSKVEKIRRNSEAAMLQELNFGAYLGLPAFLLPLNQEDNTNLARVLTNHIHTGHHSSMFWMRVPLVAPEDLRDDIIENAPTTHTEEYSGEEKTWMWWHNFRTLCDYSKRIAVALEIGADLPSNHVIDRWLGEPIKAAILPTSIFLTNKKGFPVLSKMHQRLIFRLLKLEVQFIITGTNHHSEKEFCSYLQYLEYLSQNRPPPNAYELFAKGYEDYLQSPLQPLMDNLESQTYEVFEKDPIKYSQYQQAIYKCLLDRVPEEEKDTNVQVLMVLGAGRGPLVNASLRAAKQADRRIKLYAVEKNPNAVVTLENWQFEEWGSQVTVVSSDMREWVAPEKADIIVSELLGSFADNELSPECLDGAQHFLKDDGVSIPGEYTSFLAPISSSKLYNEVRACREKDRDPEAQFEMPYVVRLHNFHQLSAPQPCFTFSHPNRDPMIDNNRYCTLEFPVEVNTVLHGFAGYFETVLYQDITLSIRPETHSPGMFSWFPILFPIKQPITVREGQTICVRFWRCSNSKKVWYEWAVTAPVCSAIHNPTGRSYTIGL
Chain of PRMT5-MTA (Q9BQA1 whole entry partner): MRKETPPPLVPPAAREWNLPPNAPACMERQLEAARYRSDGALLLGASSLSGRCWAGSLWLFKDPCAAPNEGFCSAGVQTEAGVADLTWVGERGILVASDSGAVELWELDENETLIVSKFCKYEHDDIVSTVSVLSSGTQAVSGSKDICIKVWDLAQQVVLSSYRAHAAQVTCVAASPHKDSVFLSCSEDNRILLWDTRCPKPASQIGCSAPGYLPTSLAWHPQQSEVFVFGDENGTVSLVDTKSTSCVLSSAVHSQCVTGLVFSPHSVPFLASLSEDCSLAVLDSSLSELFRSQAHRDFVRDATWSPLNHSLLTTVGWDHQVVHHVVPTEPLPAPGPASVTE

Assay [3] deals with HCT116 MTAP KO cells. In words: Inhibitory activity against cell proliferation (CellTiter Glo, 6 days), HCT116 MTAP KO. The format is cell-based. To be noted: for IC50: Homo sapiens, HCT-116, 144 h, HCT116 MTAP KO cells, 6 days, CellTiter Glo, read-out: HCT116 MTAP KO IC50; for Selectivity HCT 116-WT/ HCT116 MTAP KO: ratio of IC50 HCT116-WT / HCT116 MTAP KO. An outline of the steps: as §1

Consider `Cc1cc2nc(N)c3cnn(C)c3c2cc1C(=O)N1CC(=O)CN1c1ncccc1F` [Example 354, 1-(4-amino-1,7-dimethyl-1H-pyrazolo[4,3-c]quinoline-8-carbonyl)-2-(3-fluoropyridin-2-yl)pyrazolin-4-one], for which the IC50 in assay [1] was determined as 2.53 µM; in assay [2], 0.0038 µM; in assay [3], 0.062 µM. Moreover, the “Selectivity HCT 116-WT/ HCT116 MTAP KO” value in assay [3] is listed as 40.76.

For the molecule `Cc1cc2cc(C(=O)N(Cc3ccc(C(F)(F)F)cn3)N(C)c3nccc4sccc34)ccc2nc1N` [Example 271, 2-amino-N',3-dimethyl-N'-(thieno[3,2-c]pyridin-4-yl)-N-((5-(trifluoromethyl)pyridin-2-yl)methyl)quinoline-6-carbohydrazide], the half-maximal inhibitory concentration (IC50) is 1.19 µM in assay [1], 0.0027 µM in assay [2] and 0.089 µM in assay [3]. In addition, the “Selectivity HCT 116-WT/ HCT116 MTAP KO” value in assay [3] is recorded as 13.42.

On to `Cc1cc2cc(C(=O)N(Cc3ccc(-c4cncc(C(F)(F)F)c4)cn3)N(C)c3ncccn3)ccc2nc1N` [Example 175, 2-amino-N',3-dimethyl-N'-(pyrimidin-2-yl)-N-((5'-(trifluoromethyl)-[3,3'-bipyridine]-6-yl)methyl)quinoline-6-carbohydrazide], for which the IC50 in assay [1] worked out at 2.2 µM; in assay [2], 0.0033 µM; in assay [3] it was 0.116 µM. In assay [3], the “Selectivity HCT 116-WT/ HCT116 MTAP KO” value came to 18.95.

On to `[2H]c1nc(C)c(-c2ccc(CN(C(=O)c3ccc4nc(N)c(C)cc4c3)N(c3ncccn3)C3CC3)nc2)s1` [Example 238, 2-amino-N'-cyclopropyl-3-methyl-N-((5-(4-methylthiazol-5-yl-2d)pyridin-2-yl)methyl)-N'-(pyrimidin-2-yl)quinoline-6-carbohydrazide], for which the concentration for half-maximal inhibition (IC50) in assay [1] stood at 0.112 µM; in assay [2] it was 0.0057 µM; in assay [3], 0.0051 µM. Further, in assay [3], the “Selectivity HCT 116-WT/ HCT116 MTAP KO” value is on record as 21.96.

In the case of `[2H]C([2H])([2H])c1cc2cc(C(=O)N(Cc3ccc(C(F)(F)F)cn3)N(c3ncccn3)C3CC3)ccc2nc1N` [Example 314, 2-amino-N'-cyclopropyl-3-(methyl-D3)-N'-(pyrimidin-2-yl)-N-((5-(trifluoromethyl)pyridin-2-yl)methyl)quinoline-6-carbo hydrazide], the half-inhibitory concentration (IC50) in assay [1] worked out at 0.283 µM; in assay [2] it was 0.0047 µM; in assay [3], 0.012 µM. In addition, in assay [3], the “Selectivity HCT 116-WT/ HCT116 MTAP KO” value stood at 23.58.

Turning to `Cc1cc2cc(C(=O)N(Cc3ccc(Br)cc3F)N(C)c3ncccn3)ccc2nc1N` [Example 84, 2-amino-N-(4-bromo-2-fluorobenzyl)-N', 3-dimethyl-N'-(pyrimidin-2-yl)quinoline-6-carbohydrazide], the IC50 worked out at 1.63 µM in assay [1], 0.0034 µM in assay [2] and 0.058 µM in assay [3]. For the same molecule, in assay [3], the “Selectivity HCT 116-WT/ HCT116 MTAP KO” value is listed as 28.17.

In the case of `COCc1ncsc1-c1ccc(CN(C(=O)c2ccc3nc(N)c(C)cc3c2)N(C)c2ncccn2)nc1` [Example 226, 2-amino-N-((5-(4-(methoxymethyl)thiazol-5-yl)pyridin-2-yl)methyl)-N',3-dimethyl-N'-(pyrimidin-2-yl)quinoline-6-carbohydrazide], the half-inhibitory concentration (IC50) was found to be 0.891 µM in assay [1], 0.005 µM in assay [2] and 0.028 µM in assay [3]. Moreover, in assay [3], the “Selectivity HCT 116-WT/ HCT116 MTAP KO” value is 31.82.

In the case of `Cc1cc2cc(C(=O)N(Cc3ccc(-c4ccc(N5CCOCC5)nc4)cn3)N(C)c3ncccn3)ccc2nc1N` [Example 176, 2-amino-N',3-dimethyl-N-((6'-morpholinyl-[3,3'-bipyridine]-6-yl)methyl)-N'-(pyrimidin-2-yl)quinoline-6-carbohydrazide], the figures for the IC50 in assay [1], in assay [2] and in assay [3] were 0.997 µM, 0.002 µM and 0.057 µM, respectively. In addition, the “Selectivity HCT 116-WT/ HCT116 MTAP KO” value in assay [3] is 17.49.

For the molecule `C#Cc1cnc(N2CC(C)CN2C(=O)c2cc3c(cc2C)nc(N)c2cnn(C)c23)c(F)c1` (stereo not shown) [Example 494, (4-amino-1,7-dimethyl-1H-pyrazolo[4,3-c]quinolin-8-yl)(2-(5-ethynyl-3-fluoropyridin-2-yl)-4-methylpyrazolidin-1-yl)methanone], the IC50 in assay [1] worked out at 1 µM; in assay [2], 0.0046 µM; in assay [3] it was 0.029 µM. For the same molecule, the “Selectivity HCT 116-WT/ HCT116 MTAP KO” value in assay [3] worked out at 34.62.

For `Cc1cc2cc(C(=O)N(Cc3ccc(-c4ccncc4)cn3)N(C)c3ncccc3F)ccc2nc1N` [Example 178, N-([3,4'-bipyridine]-6-ylmethyl)-2-amino -N'-(3-fluoropyridin-2-yl)-N',3-dimethylq uinoline-6-carbohydrazide], the results for the IC50 in assay [1], in assay [2] and in assay [3] were 0.486 µM, 0.0016 µM and 0.021 µM, respectively. Further, the “Selectivity HCT 116-WT/ HCT116 MTAP KO” value in assay [3] was 23.14.

Consider `Cc1cc2nc(N)c3cnn(C)c3c2cc1C(=O)N1CCCN1c1ccc(C(F)(F)F)cc1` [Example 377, (4-amino-1,7-dimethyl-1H-pyrazolo[4,3-c]quinolin-8-yl)(2-(4-(trifluoromethyl)phenyl)pyrazolidin-1-yl)methanone], for which the figures for the IC50 in assay [1], in assay [2] and in assay [3] were 4.31 µM, 0.0031 µM and 0.311 µM, respectively. Moreover, the “Selectivity HCT 116-WT/ HCT116 MTAP KO” value in assay [3] was 13.85.

Consider `[2H]C([2H])([2H])N(c1nccc2nccnc12)N(Cc1ccc(C(F)(F)F)cn1)C(=O)c1ccc2nc(N)c(C)cc2c1` [Example 62], for which the IC50 in assay [1] was 1.5 µM; in assay [2], 0.0051 µM; in assay [3] it was 0.086 µM. Further, the “Selectivity HCT 116-WT/ HCT116 MTAP KO” value in assay [3] is 17.42.

Turning to `Cc1cc2cc(C(=O)N(Cc3cc(C(F)(F)F)ccn3)N(C)c3ncccn3)ccc2nc1N` [Example 61, 2-amino-N',3-dimethyl-N'-(pyrimidin-2-yl)-N-((4-(trifluoromethyl)pyridin-2-yl)methyl)quinoline-6-carbohydrazide], the IC50 worked out at 2.39 µM in assay [1], 0.0024 µM in assay [2] and 0.126 µM in assay [3]. The “Selectivity HCT 116-WT/ HCT116 MTAP KO” value in assay [3] was 18.95.

Take `Cc1cc2cc(C(=O)N(Cc3ccc(C(F)(F)F)cn3)N(C)c3ncccc3F)ccc2nc1N` [Example 5, 2-amino-N'-(3-fluoropyridin-2-yl)-N',3-di methyl-N-((5-(trifluoromethyl)pyridin-2-yl)methyl)quinoline-6-carbohydrazide]: the IC50 in assay [1] turned out to be 0.852 µM; in assay [2], 0.0015 µM; in assay [3], 0.042 µM. The “Selectivity HCT 116-WT/ HCT116 MTAP KO” value in assay [3] is 20.29.

As for `Cc1cc2cc(C(=O)N(Cc3ncc(Br)cc3F)N(C)c3ncccn3)ccc2nc1N` [Example 277, 2-amino-N-((5-bromo-3-fluoropyridin-2-yl)methyl)-N',3-dimethyl-N'-(pyrimidin-2-yl)quinoline-6-carbohydrazide], the IC50 in assay [1] was determined as 1.91 µM; in assay [2], 0.0022 µM; in assay [3] it was 0.079 µM. Also, the “Selectivity HCT 116-WT/ HCT116 MTAP KO” value in assay [3] was found to be 24.23.

For `CN(c1ccccc1)N(Cc1ccc(C(F)(F)F)cn1)C(=O)c1ccc2nc(N)c3cnn(C)c3c2c1` [Example 52, 4-amino-N',1-dimethyl-N'-phenyl-N-((5-(trifluoromethyl)pyridin-2-yl)methyl)-1H-pyrazolo[4,3-c]quinoline-8-carbohydrazide], the half-inhibitory concentration (IC50) in assay [1] worked out at 0.417 µM; in assay [2], 0.0037 µM; in assay [3], 0.013 µM. Moreover, the “Selectivity HCT 116-WT/ HCT116 MTAP KO” value in assay [3] is given as 32.08.

Values taken from EP4745134A1 (Jiangsu Yahong Meditech Co., Ltd., priority 2023, dated 2025).
